The results in this text go back to patent US8637525B2, “Compounds for the reduction of beta-amyloid production” (Bristol-Myers Squibb Company, priority 2009, dated 2014).

Molecules are shown by their SMILES. Structures can show the parent of a compound that is named as a salt. Where two headings read alike, the source gives them in different places. Bounds are passed on as bounds.

The test system of the test is Aβ1-42 production. Briefly: Cellular assay for inhibition of Aβ1-42 production (H4 APP751 SWE clone 8.20). The following applies: H4 APP751 SWE clone 8.20 cells, 19 h incubation. It is filed as cell-based. In a few lines:
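H4 cells stably expressing Swedish-mutant APP751 incubated with compound 19 h at 37 °C, 5% CO2. Secreted Aβ42 detected by HTRF with Aβ42 neoepitope antibody 565 (0.8 ng/well) and N-terminal 26D6 (75 ng/well), overnight at 4 °C. IC50 obtained by curve fitting.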

Setting [1] is: 19 h, read-out: Activity Rating (Aβ42 cellular IC50), numeric value.
The mark [2] stands for this setting: class symbols, read-out: Activity Rating (Aβ42 cellular IC50).
The mark [3] stands for this setting: 19 h, class symbols, read-out: Activity Rating (Aβ42 cellular IC50).

With `COc1cc(Nc2nc3c(c(N4CC(F)(F)C4)n2)CCC3c2cc(F)c(F)c(F)c2)ccc1-n1cnc(Cl)c1` (stereo not shown) [Example 108, N-(4-(4-Chloro-1H-imidazol-1-yl)-3-methoxyphenyl)-4-(3,3-difluoroazetidin-1-yl)-7-(3,4,5-trifluorophenyl)-6,7-dihydro-5H-cyclopenta[d]pyrimidin-2-amine], the IC50 under setting [1] stood at 20 nM.
In the case of `CCNc1nc(Nc2ccc(-n3cnc(Cl)c3)c(OC)c2)nc2c1COCC2c1ccc(F)cc1` (stereo not shown) [Example 56A, N2-(4-(4-chloro-1H-imidazol-1-yl)-3-methoxyphenyl)-N4-ethyl-8-(4-fluorophenyl)-7,8-dihydro-5H-pyrano[4,3-d]pyrimidine-2,4-diamine], the half-maximal inhibitory concentration (IC50) under setting [2] is 1.5 to 9.9 nM.
Regarding `CNc1nc(Nc2ccc(-n3cnc(C)n3)c(OC)c2)nc2c1CCC2c1ccc(N(C)C)cc1` (stereo not shown) [Example 273, 7-(4-(dimethylamino)phenyl)-N2-(3-methoxy-4-(3-methyl-1H-1,2,4-triazol-1-yl)phenyl)-N4-methyl-6,7-dihydro-5H-cyclopenta[d]pyrimidine-2,4-diamine], the 50% inhibitory concentration (IC50) under setting [3] fell in the range of 10 to 100 nM.
On the same count and under the same terms, as for `CNc1nc(Nc2ccc(-n3ncnc3C)c(OC)c2)nc2c1CC[C@H]2c1ccc(F)cc1` (single isomer, unassigned) [Example 264A], the figure is 1.5 to 9.9 nM; as for `CNc1nc(Nc2ccc3nc(C)oc3c2)nc2c1CCC2c1ccccc1` (stereo not shown) [Example 252, N4-methyl-N2-(2-methylbenzo[d]oxazol-6-yl)-7-phenyl-6,7-dihydro-5H-cyclopenta[d]pyrimidine-2,4-diamine], over 1000 nM; as for `CCNc1nc(Nc2ccc(-n3cnc(Cl)c3)c(OC)c2)nc2c1CN(C(=O)C1CC1)CC2c1ccccc1` (stereo not shown) [Example 132, (2-(4-(4-chloro-1H-imidazol-1-yl)-3-methoxyphenylamino)-4-(ethylamino)-8-phenyl-7,8-dihydropyrido[4,3-d]pyrimidin-6(5H)-yl)(cyclopropyl)methanone], 10 to 100 nM.
Same read-out and setting: the figure for `CNc1nc(Nc2ccc(-n3ncnc3C)c(F)c2)nc2c1CCC2c1ccc(F)cc1` (single isomer, unassigned) [Example 26A, N^2-(3-fluoro-4-(5-methyl-1H-1,2,4-triazol-1-yl)phenyl)-7-(4-fluorophenyl)-N^4-methyl-6,7-dihydro-5H-cyclopenta[d]pyrimidine-2,4-diamine] is 10 to 100 nM; for `CNc1nc(Nc2ccc(-n3cnc(C)n3)c(OC)c2)nc2c1CC[C@H]2c1ccc(Cl)cc1F` (single isomer, unassigned) [Example 271A] it is 1.5 to 9.9 nM; for `CCNc1nc(Nc2ccc(-n3ncnc3C)c(F)c2)nc2c1CN(C(=O)C1CC1)CC2c1ccccc1` (stereo not shown) [Example 144, cyclopropyl(4-(ethylamino)-2-(3-fluoro-4-(5-methyl-1H-1,2,4-triazol-1-yl)phenylamino)-8-phenyl-7,8-dihydropyrido[4,3-d]pyrimidin-6(5H)-yl)methanone] it is 10 to 100 nM.
As for `Cc1ccc(C(C)C)cc1Nc1nc(Nc2ccc(C#N)cc2)nc2c1CCC2c1ccccc1` (stereo not shown) [Example 215B, 4-(4-(5-isopropyl-2-methylphenylamino)-7-phenyl-6,7-dihydro-5H-cyclopenta[d]pyrimidin-2-ylamino)benzonitrile], the IC50 under setting [1] came out at 173 nM.
Same read-out and setting: as for `CNc1nc(Nc2ccc(Cl)c(OC)c2)nc2c1CCC2c1ccccc1` (stereo not shown) [Example 220, N2-(4-chloro-3-methoxyphenyl)-N4-methyl-7-phenyl-6,7-dihydro-5H-cyclopenta[d]pyrimidine-2,4-diamine], the figure is 550 nM.
As to `CNc1nc(Nc2ccc(-n3cnc(Cl)c3)c(OC)c2)nc2c1CCCC2c1ccccc1` (stereo not shown) [Example 203B, N2-(4-(4-chloro-1H-imidazol-1-yl)-3-methoxyphenyl)-N4-methyl-8-phenyl-5,6,7,8-tetrahydroquinazoline-2,4-diamine], the half-maximal inhibitory concentration (IC50) under setting [2] was 10 to 100 nM.
Consider `CCNc1nc(Nc2ccc(-n3cnc(Cl)c3)c(OC)c2)nc2c1CCC2c1ccc(OC(F)(F)F)cc1` (racemic) [Example 98, N^2-(4-(4-Chloro-1H-imidazol-1-yl)-3-methoxyphenyl)-N^4-ethyl-7-(4-(trifluoromethoxy)phenyl)-6,7-dihydro-5H-cyclopenta[d]pyrimidine-2,4-diamine], for which the IC50 under setting [3] was 10 to 100 nM.
Still for that read-out and setting: as for `CNc1nc(Nc2ccc(-n3cnc(Cl)c3)c(OC)c2)nc2c1CN(C)CC2c1ccc(F)cc1` (stereo not shown) [Example 163A, N2-(4-(4-chloro-1H-imidazol-1-yl)-3-methoxyphenyl)-8-(4-fluorophenyl)-N4,6-dimethyl-5,6,7,8-tetrahydropyrido[4,3-d]pyrimidine-2,4-diamine], the figure is 1.5 to 9.9 nM.
For `CNc1nc(Nc2ccc(-n3cnc(Cl)c3)c(OC)c2)nc2c1CCC2c1ccc(F)c(F)c1` (racemic) [Example 96, N^2-(4-(4-Chloro-1H-imidazol-1-yl)-3-methoxyphenyl)-7-(3,4-difluorophenyl)-N^4-methyl-6,7-dihydro-5H-cyclopenta[d]pyrimidine-2,4-diamine], under setting [3], the 50% inhibitory concentration (IC50) lay within 1.5 to 9.9 nM.
In the case of `CCN(C)c1nc(Nc2ccc(-n3cnc(Cl)c3)c(OC)c2)nc2c1CCN(S(C)(=O)=O)C2c1ccc(F)cc1` (stereo not shown) [Example 172A, N2-(4-(4-chloro-1H-imidazol-1-yl)-3-methoxyphenyl)-N4-ethyl-8-(4-fluorophenyl)-N4-methyl-7-(methylsulfonyl)-5,6,7,8-tetrahydropyrido[3,4-d]pyrimidine-2,4-diamine], under setting [2], the IC50 was in the range of 1.5 to 9.9 nM.
As to `CNc1nc(Nc2ccc(-n3cnc(Cl)c3)c(OC)c2)nc2c1COC2c1ccc(F)cc1` (single isomer, unassigned) [Example 79B, N^2-(4-(4-chloro-1H-imidazol-1-yl)-3-methoxyphenyl)-7-(4-fluorophenyl)-N^4-methyl-5,7-dihydrofuro[3,4-d]pyrimidine-2,4-diamine], the concentration for half-maximal inhibition (IC50) under setting [3] was 10 to 100 nM.
`CNc1nc(Nc2ccc(-n3cnc(Cl)n3)c(OC)c2)nc2c1CCC2c1cc(F)c(F)c(F)c1` (stereo not shown) [Example 106, N^2-(4-(3-chloro-1H-1,2,4-triazol-1-yl)-3-methoxyphenyl)-N^4-methyl-7-(3,4,5-trifluorophenyl)-6,7-dihydro-5H-cyclopenta[d]pyrimidine-2,4-diamine]: the IC50 under setting [3] was in the range of 10 to 100 nM.
As for `COc1cc(Nc2nc3c(c(N4CC[C@@H](F)C4)n2)COC3c2ccc(F)cc2)ccc1-n1cnc(Cl)c1` (single isomer, unassigned) [Example 83A], under setting [2], the concentration for half-maximal inhibition (IC50) was 1.5 to 9.9 nM.
Regarding `CCNc1nc(Nc2ccc(-n3cnc(Cl)c3)c(OC)c2)nc2c1COCC2c1ccc(F)c(F)c1` (racemic) [Example 113, N2-(4-(4-chloro-1H-imidazol-1-yl)-3-methoxyphenyl)-8-(3,4-difluorophenyl)-N4-ethyl-7,8-dihydro-5H-pyrano[4,3-d]pyrimidine-2,4-diamine, TFA], the 50% inhibitory concentration (IC50) under setting [1] came out at 5.7 nM.
On the same count and under the same terms, as for `COc1cc(Nc2nc(Nc3cc(C(C)C)ccc3C)c3c(n2)C(c2ccccc2)CC3)ccc1-n1cnc(Cl)c1` (stereo not shown) [Example 214, N2-(4-(4-chloro-1H-imidazol-1-yl)-3-methoxyphenyl)-N4-(5-isopropyl-2-methylphenyl)-7-phenyl-6,7-dihydro-5H-cyclopenta[d]pyrimidine-2,4-diamine], the figure is 77 nM.
On to `CCC1CCCN1c1nc(Nc2ccc(-n3cnc(Cl)c3)c(OC)c2)nc2c1CCC2c1ccc(F)cc1` (single isomer, unassigned) [Example 24A, N-(4-(4-chloro-1H-imidazol-1-yl)-3-methoxyphenyl)-4-(2-ethylpyrrolidin-1-yl)-7-(4-fluorophenyl)-6,7-dihydro-5H-cyclopenta[d]pyrimidin-2-amine], for which the IC50 under setting [2] was in the range of 10 to 100 nM.
In the case of `CNc1nc(Nc2ccc(-n3cnc(Cl)c3)c(OC)c2)nc2c1CCC2c1ccc(F)cc1F` (single isomer, unassigned) [Example 109A, N^2-(4-(4-Chloro-1H-imidazol-1-yl)-3-methoxyphenyl)-7-(2,4-difluorophenyl)-N^4-methyl-6,7-dihydro-5H-cyclopenta[d]pyrimidine-2,4-diamine], the half-inhibitory concentration (IC50) under setting [3] was 1.5 to 9.9 nM.
Regarding `CNc1nc(Nc2ccc(S(C)(=O)=O)cc2)nc2c1CCC2c1ccccc1` (stereo not shown) [Example 235, N4-methyl-N2-(4-(methylsulfonyl)phenyl)-7-phenyl-6,7-dihydro-5H-cyclopenta[d]pyrimidine-2,4-diamine], the concentration for half-maximal inhibition (IC50) under setting [3] was 100 to 1000 nM.
Still for that read-out and setting: the figure for `CNc1nc(Nc2ccc(-n3cnc(Cl)c3)c(OC)c2)nc2c1COCC2c1ccccc1` (single isomer, unassigned) [Example 51A, N^2-(4-(4-chloro-1H-imidazol-1-yl)-3-methoxyphenyl)-N^4-methyl-8-phenyl-7,8-dihydro-5H-pyrano[4,3-d]pyrimidine-2,4-diamine] is 1.5 to 9.9 nM.
For the molecule `CNc1nc(Nc2ccc(-n3ncnc3C)c(OC)c2)nc2c1CN(C)CC2c1ccc(F)cc1` (stereo not shown) [Example 199, 8-(4-fluorophenyl)-N2-(3-methoxy-4-(5-methyl-1H-1,2,4-triazol-1-yl)phenyl)-N4,6-dimethyl-5,6,7,8-tetrahydropyrido[4,3-d]pyrimidine-2,4-diamine], the half-inhibitory concentration (IC50) under setting [2] was 10 to 100 nM.
With `CNc1nc(Nc2ccc(-c3cccnc3)c(OC)c2)nc2c1CCC2c1ccccc1` (stereo not shown) [Example 263, N2-(3-methoxy-4-(pyridin-3-yl)phenyl)-N4-methyl-7-phenyl-6,7-dihydro-5H-cyclopenta[d]pyrimidine-2,4-diamine], the IC50 under setting [1] was 32 nM.
Take `CNc1nc(Nc2ccc(-n3ncnc3C)c(F)c2)nc2c1COCC2c1ccc(Cl)cc1` (single isomer, unassigned) [Example 69A, 8-(4-chlorophenyl)-N^2-(3-fluoro-4-(5-methyl-1H-1,2,4-triazol-1-yl)phenyl)-N^4-methyl-7,8-dihydro-5H-pyrano[4,3-d]pyrimidine-2,4-diamine]: the concentration for half-maximal inhibition (IC50) under setting [2] was 1.5 to 9.9 nM.

Usually IC50 stands for the point on the concentration scale where inhibition reaches its midpoint.
